# Source: patent US20170296521A1, “PHARMACEUTICAL COMPOSITION FOR SUPPRESSION OF THROMBOEMBOLISM AFTER STENT PLACEMENT” (priority 2014, published 2017)
# Structures can show the parent of a compound that is named as a salt.
# System: thrombus formation on stents in arteriovenous shunts
# Test: rat stent thrombosis model (AV shunt with stents), amount of protein in thrombus
# Assay type: in vivo
# Conditions: for dose responsiveness of the antithrombotic effect: Example 1, Spearman's correlation coefficient test, P<0.001; for suppression of thrombus formation (rate of inhibition of amount of protein in thrombus): Example 1, FIG. 1A
# Procedure: Each rat was anesthetized with thiopental sodium (100 mg/mL/kg, i.p.) and placed on a warming mat. 18 minutes after the start of the anesthesia, polyethylene tubes (approximately 34 cm) containing four stents were inserted into the right and left carotid arteries and jugular veins to produce arteriovenous shunts (hereinafter, referred to as “AV shunts”). Blood flow was started in the shunts. 30 minutes after the start of the blood flow, the stents with thrombus attached thereto were taken out, and the amount of protein in the thrombus was measured.
# A 0.5% MC solution (10 mL/kg or 15 mL/kg) was orally administered to a control group. […] The collected thrombus-attached stents were stored at −20° C. until protein quantification. […] Then, the anti-FXa activity in the plasma was measured.
# Aspirin (5 mg/15 ml/kg) or clopidogrel (3 mg/10 ml/kg) was orally administered to each rat fasted overnight. […] A 0.5% MC solution (10 mL/kg or 15 mL/kg) was orally administered to a control group.
# Amount of protein in thrombus: The thrombus-attached stents were placed in 0.9 mL of a 0.1 N NaOH solution containing 2% Na2CO3 and boiled for approximately 30 minutes to solubilize protein.
compound,measurement,setting,value
"COC(=O)[C@H](c1ccccc1Cl)N1CCc2sccc2C1 [clopidogrel, clopidogrel sulfate]",suppression of thrombus formation,"Example 1, FIG. 3, 1 mg/kg orally two hours before AV shunting",40%
same,suppression of thrombus formation,"Example 1, FIG. 3, 3 mg/kg orally two hours before AV shunting",47%
same,suppression of thrombus formation,"Example 1, FIG. 3, 10 mg/kg orally two hours before AV shunting",84%
same,suppression of thrombus formation,"Example 1, FIG. 3, 30 mg/kg orally two hours before AV shunting",94%
same,dose responsiveness of the antithrombotic effect,,dose-dependent
same,rate of suppression of thrombus formation,"Example 2, FIG. 6A, clopidogrel 3 mg/kg orally alone",21%
ticagrelor sulfate,suppression of thrombus formation,"Example 1, FIG. 4, 0.3 mg/kg orally two hours before AV shunting",67%
same,suppression of thrombus formation,"Example 1, FIG. 4, 1 mg/kg orally two hours before AV shunting",74%
same,suppression of thrombus formation,"Example 1, FIG. 4, 3 mg/kg orally two hours before AV shunting",89%
same,dose responsiveness of the antithrombotic effect,,dose-dependent
"CN1CCc2nc(C(=O)N[C@@H]3C[C@@H](C(=O)N(C)C)CC[C@@H]3NC(=O)C(=O)Nc3ccc(Cl)cn3)sc2C1.Cc1ccc(S(=O)(=O)O)cc1 [edoxaban, N-(5-chloropyridin-2-yl)-N′-[(1S,2R,4S)-4-(dimethylcarbamoyl)-2-(5-methyl-4,5,6,7-tetrahydro[1,3]thiazolo[5,4-c]pyridine-2-carboxamido)cyclohexyl]oxamide]",suppression of thrombus formation (rate of inhibition of amount of protein in thrombus),0.3 mg/kg orally 30 minutes before AV shunting,37%
same,suppression of thrombus formation (rate of inhibition of amount of protein in thrombus),1 mg/kg orally 30 minutes before AV shunting,70%
same,suppression of thrombus formation (rate of inhibition of amount of protein in thrombus),3 mg/kg orally 30 minutes before AV shunting,86%
same,dose responsiveness of the antithrombotic effect,,dose-dependent
same,rate of suppression of thrombus formation,"Example 2, FIG. 5A, edoxaban 0.5 mg/kg orally alone",42%
same,rate of suppression of thrombus formation,"Example 2, FIG. 6A, edoxaban 0.5 mg/kg orally alone",25%
CC(=O)Oc1ccccc1C(=O)O [aspirin],rate of suppression of thrombus formation,"Example 1, FIG. 2A, 5 mg/kg orally two hours before AV shunting",40%
same,rate of suppression of thrombus formation,"Example 1, FIG. 2A, 10 mg/kg orally two hours before AV shunting",47%
same,significance of the suppression of thrombus formation vs control,"Example 1, FIG. 2A, 5 and 10 mg/kg orally, Dunnett's test",no significant effect
same,suppression of thrombus formation,"Example 1, FIG. 2B, 10 mg/kg orally two hours before AV shunting",63%
same,suppression of thrombus formation,"Example 1, FIG. 2B, 25 mg/kg orally two hours before AV shunting",64%
same,suppression of thrombus formation,"Example 1, FIG. 2B, 50 mg/kg orally two hours before AV shunting",70%
same,suppression of thrombus formation,"Example 1, FIG. 2B, 100 mg/kg orally two hours before AV shunting",83%
same,dose responsiveness of the antithrombotic effect,,dose-dependent
same,rate of suppression of thrombus formation,"Example 2, FIG. 5A, aspirin 5 mg/kg orally alone",42%
